Results from paper PMC12679848, “Sulphonamide derivatives with a triazine core as novel inducers of apoptosis and pyroptosis in glioblastoma multiforme cells” (Journal of Enzyme Inhibition and Medicinal Chemistry, 2025).

How the values were obtained:
[1] = system: U-87 MG; experiment: LDH release assay, U-87 MG; format: cell-based, human; conditions: 1.5 μM, 24 h
Procedure: Analogous to the procedure described in the previous section, A172 and U-87 MG cells were cultured and plated in 96-well plates. The LDH-Cytotoxicity Assay Kit II (ab65393) (Abcam, Cambridge, UK) was used to assess cytotoxicity according to the manufacturer’s protocol. The test compounds MM118 and MM119 and the reference compound temozolomide (TMZ) were added to the cells at a concentration of 1.5 μM. After 24 h of exposure, the medium was collected, centrifuged and 10 μL of each sample was transferred to a new 96-well plate. In the next step, 100 μL of LDH Reaction Mix was added to each well and incubated for 30 min at room temperature. Absorbance was measured at 450 nm using an Absorbance 96 microplate reader (Byonoy GmbH, Hamburg, Germany). Cytotoxicity was calculated according to the formula provided by the manufacturer: Cytotoxicity (%) = ((Test Sample – Low Control)/(High Control – Low Control)) X 100, where Low Control - control without added compound, High Control with added 10 µL Lysis Buffer II.

[2] = system: A172 xenografts; experiment: Zebrafish xenograft, A172; format: in vivo; conditions: 10 µM, 48 h, 0.1% DMSO control 4%
Procedure: (§1) In our study, we used wild-type AB zebrafish embryos obtained from the certified Experimental Medicine Centre (Lublin, Poland). Adult zebrafish were raised at 28.5 °C under 14 h of light and 10 h of the dark cycle and fed in accordance with the guidelines established by the Research Animals Department of the RSPCA. Fertilised eggs were obtained by natural spawning; healthy clutches were processed for study or propagated for line maintenance. Embryos were maintained in the E3 medium (5 mM NaCl, 0.33 mM MgCl2, 0.33 mM CaCl2, 0.17 mM KCl; pH 7.2) at 28.5 °C. The use of animals in scientific research in Europe is governed by the Directive 2010/63/EU of 22 September 2010. […] All procedures in this study were performed on embryos up to 5 dpf.
(§2) A172 and U-87MG cell lines were labelled with Vybrant Did (Invitrogen, Waltham, MA, USA) according to the manufacturer’s protocol. Stained cells were re-suspended in Dulbecco’s modified Eagle’s medium (DMEM) at the final concentration of 1 × 10^7 cells/mL. 24 h post-fertilisation (hpf) zebrafish were manually dechorionated. […]
(§3) Xenograft imaging has been performed before (48 hpf) and after (120 hpf) drugs treatment using an EVOS M5000 Imaging System with the filter Cy5 (excitation: 628 nm; emission: 692 nm). […] Tumour sizes were analysed as the area of labelled tumour cells according Ali et al.[18] using EVOS software.

[3] = system: A172; experiment: Reactive oxygen species, H2DCFDA/DAPI staining, A172; format: cell-based, human; conditions: A172, 30 min of compound treatment
Procedure: (§4) We performed double staining with DAPI, which stains nuclear genetic material (blue fluorescence), and H2DCFDA, an indicator of oxidative stress (green fluorescence). This study allowed us to evaluate the ability of MM118 and MM119 to activate reactive oxygen species (ROS) in A172 and U-87 MG glial cells.
(§5) The impact of the tested compounds on reactive oxygen species (ROS) production was assessed. Cells were seeded in 6-well culture plates at a density of 1 × 10^5 cells per well in 1 ml of medium. Following a 30-min treatment with the compounds, cells were washed with phosphate-buffered saline (PBS). Subsequently, double staining was performed using 20 µM 2′,7′-dichlorodihydrofluorescein diacetate (H2DCFDA) (obtained from Thermo Fisher Scientific, Eugene, OR, USA). This colourless reagent is hydrolysed by intracellular esterases and subsequently oxidised to the 2′,7′-dichlorofluorescein (DCF), and 10 µg/mL of 4′,6-diamidino-2-phenylindole (DAPI) (Sigma-Aldrich, St. Louis, MO, USA) was used to stain nuclear DNA. Fluorescence was observed using a Nikon ECLIPSE Ti fluorescence microscope (Nikon, Tokyo, Japan). ImageJ software (Bethesda, MD, USA) was used for data analysis, with DCF fluorescence intensity measured relative to the control. A minimum of 100 cells per sample were analysed.

[4] = system: U-87MG xenografts; experiment: Zebrafish xenograft, U-87 MG; format: in vivo; conditions: U-87 MG zebrafish xenografts, 10 µM, 48 h; 0.1% DMSO control 22%
Procedure: as §1, §2, §3

[5] = system: U-87 MG; experiment: Reactive oxygen species, H2DCFDA/DAPI staining, U-87 MG; format: cell-based, human; conditions: 30 min of compound treatment
Procedure: as §4, §5

| SMILES | LDH release, cytotoxicity [1] | average tumour size reduction [2] | ROS, mean green (DCF) fluorescence [3] | tumour size reduction [4] | ROS, mean green (DCF) fluorescence [5] |
| --- | --- | --- | --- | --- | --- |
| CCC(CO)NS(=O)(=O)c1ccc(-n2nc(C)c3nc4nnnn4nc32)cc1 (stereo in doubt) [MM119, N-(S)-(1-hydroxy-but-2-yl)-4-[7-methyl-5H-pyrazolo[4,3-e]tetrazolo[1,5-b][1]^,[2]^,[4]triazin-5-yl)]benzenesulfonamide] | 28.02 ± 5.27% | 56% | increase in mean green fluorescence | 56% | effectively induce oxidative stress |
| Cn1nnc2c(C(N)=O)ncn2c1=O [TMZ, temozolomide, reference compound] | 1.18 ± 0.25% | – | – | – | – |
| CCC(CO)NS(=O)(=O)c1ccc(-n2nc(C)c3nc4nnnn4nc32)cc1 (stereo in doubt) [MM118, N-(R)-(1-hydroxy-but-2-yl)-4-[7-methyl-5H-pyrazolo[4,3-e]tetrazolo[1,5-b][1]^,[2]^,[4]triazin-5-yl)]benzenesulfonamide] | 24.27 ± 2.74% | 55% | increase in mean green fluorescence | 51% | effectively induce oxidative stress |
